Source: patent US20240115547A1, “PSYCHOTROPIC AGENTS AND USES THEREOF” (LB PHARMACEUTICALS INC., priority 2021, published 2024)

System: Dopamine (e.g., D2/D3)
Assay: Dopamine RO % by raclopride PET after LB-102, various dosage regimens (Example 3)
Type: in vivo, human
Conditions: for Dopamine RO % (Caudate + Putamen): group mean
Experimental: Healthy subjects were dosed orally with LB102 of 50 mg QD (n=4), 75 mg QD (n=4), 100 mg QD (n=4), 50 mg SS (n=2), or 100 mg SS (n=2). Subjects were, on average, 33 years old. Subjects dosed QD were given a single dose on day 1 after which PET scans were obtained; and subjects dosed SS, i.e., steady state, were dosed once a day for 4 days and PET scans were obtained after dosing on Day 4.
Dynamic […] raclopride PET scans were obtained 0 h, 2.5 h, 7.5 h, and 23.5 h after LB-102 administration for the 50 mg and 100 mg QD treatment groups and after LB-102 administration of Day 4 for the 50 mg SS and 100 mg SS treatment groups; and 0 h, 3.5 h, 23.5 h, and 47.5 h after LB-102 administration for the 75 mg QD treatment group. Dopamine % RO were calculated using the STRM method (https://pubmed.ncbi.nlm.nih.gov/9345505/, which is incorporated herein by reference) and the combined RO % (average of caudate and putamen RO %) are shown as squares FIGS. 5A (50 mg QD), 5B (75 mg QD), 5C (100 mg QD); and FIGS. 6A (50 mg SS Day 4) and 6B (100 mg SS Day 4); and summarized in Table 3-A below.
Dynamic ^11C raclopride PET scan results for calculation of dopamine RO % were measured in caudate, putamen, thalamus, and temporal lobe of each subject tested, and are summarized in Tables 3-B to 3-F below.

[1] = 50 mg QD, Subject 1, 2.5 h after LB-102 admin.
[2] = 50 mg QD, Subject 1, 7.5 h after LB-102 admin.
[3] = 50 mg QD, Subject 1, 23.5 h after LB-102 admin.
[4] = 50 mg QD, Subject 2, 2.5 h after LB-102 admin.
[5] = 50 mg QD, Subject 2, 7.5 h after LB-102 admin.
[6] = 50 mg QD, Subject 2, 23.5 h after LB-102 admin.
[7] = 50 mg QD, Subject 3, 7.5 h after LB-102 admin.
[8] = 50 mg QD, Subject 3, 23.5 h after LB-102 admin.
[9] = 50 mg QD, Subject 4, 2.5 h after LB-102 admin.
[10] = 50 mg QD, Subject 4, 7.5 h after LB-102 admin.
[11] = 50 mg QD, Subject 4, 23.5 h after LB-102 admin.
[12] = 50 mg SS (Day 4), Subject 1, ~3 h after LB-102 admin.
[13] = 50 mg SS (Day 4), Subject 1, ~8 h after LB-102 admin.
[14] = 50 mg SS (Day 4), Subject 1, ~24 h after LB-102 admin.
[15] = 50 mg SS (Day 4), Subject 2, ~3 h after LB-102 admin.
[16] = 50 mg SS (Day 4), Subject 2, ~8 h after LB-102 admin.
[17] = 50 mg SS (Day 4), Subject 2, ~24 h after LB-102 admin.
[18] = 75 mg QD, Subject 1, 3.5 h after LB-102 admin.
[19] = 75 mg QD, Subject 1, 23.5 h after LB-102 admin.
[20] = 75 mg QD, Subject 1, 47.5 h after LB-102 admin.
[21] = 75 mg QD, Subject 2, 3.5 h after LB-102 admin.
[22] = 75 mg QD, Subject 2, 23.5 h after LB-102 admin.
[23] = 75 mg QD, Subject 2, 47.5 h after LB-102 admin.

With `CCN1CCCC1CNC(=O)c1cc(S(=O)(=O)CC)c(NC)cc1OC` (stereo not shown) [LB-102] the “Dopamine RO % (Caudate + Putamen)” value (50 mg QD, 0 h after LB-102 administration) was 0%, the “Dopamine RO % (Caudate + Putamen)” value (50 mg QD, 3 h after LB-102 administration) was 24% and the “Dopamine RO % (Caudate + Putamen)” value (50 mg QD, 8 h after LB-102 administration) was 38%. For the same compound, the “Dopamine RO % (Caudate + Putamen)” value (50 mg QD, 24 h after LB-102 administration) was 42%, the “Dopamine RO % Caudate” value [1] was 26% and the “Dopamine RO % Putamen” value [1] was 23%. For the same compound, the “Dopamine RO % Temporal lobe” value [1] was 25%, the “Dopamine RO % Thalamus” value [1] was 40% and the “Dopamine RO % Caudate” value [2] was 52%. The “Dopamine RO % Putamen” value [2] was 47%, the “Dopamine RO % Temporal lobe” value [2] was 32% and the “Dopamine RO % Thalamus” value [2] was 48%. The “Dopamine RO % Caudate” value [3] was 58%, the “Dopamine RO % Putamen” value [3] was 48% and the “Dopamine RO % Temporal lobe” value [3] was 30%. The “Dopamine RO % Thalamus” value [3] was 39%, the “Dopamine RO % Caudate” value [4] was 28% and the “Dopamine RO % Putamen” value [4] was 25%. The “Dopamine RO % Temporal lobe” value [4] was 16%, the “Dopamine RO % Thalamus” value [4] was 42% and the “Dopamine RO % Caudate” value [5] was 42%. The “Dopamine RO % Putamen” value [5] was 37%, the “Dopamine RO % Temporal lobe” value [5] was 14% and the “Dopamine RO % Thalamus” value [5] was 31%. For the same compound, the “Dopamine RO % Caudate” value [6] was 45%, the “Dopamine RO % Putamen” value [6] was 36% and the “Dopamine RO % Temporal lobe” value [6] was 11%. The “Dopamine RO % Thalamus” value [6] was 23%, the “Dopamine RO % Caudate” value [7] was 36% and the “Dopamine RO % Putamen” value [7] was 25%. For the same compound, the “Dopamine RO % Temporal lobe” value [7] was 20%, the “Dopamine RO % Thalamus” value [7] was 42% and the “Dopamine RO % Caudate” value [8] was 53%. The “Dopamine RO % Putamen” value [8] was 37%, the “Dopamine RO % Temporal lobe” value [8] was 18% and the “Dopamine RO % Thalamus” value [8] was 45%. For the same compound, the “Dopamine RO % Caudate” value [9] was 23%, the “Dopamine RO % Putamen” value [9] was 19% and the “Dopamine RO % Temporal lobe” value [9] was 23%. The “Dopamine RO % Thalamus” value [9] was 26%, the “Dopamine RO % Caudate” value [10] was 43% and the “Dopamine RO % Putamen” value [10] was 34%. The “Dopamine RO % Temporal lobe” value [10] was 43%, the “Dopamine RO % Thalamus” value [10] was 28% and the “Dopamine RO % Caudate” value [11] was 45%. For the same compound, the “Dopamine RO % Putamen” value [11] was 34%, the “Dopamine RO % Temporal lobe” value [11] was 45% and the “Dopamine RO % Thalamus” value [11] was 18%. For the same compound, the “Dopamine RO % Caudate” value [12] was 75%, the “Dopamine RO % Putamen” value [12] was 67% and the “Dopamine RO % Temporal lobe” value [12] was 18%. The “Dopamine RO % Thalamus” value [12] was 44%, the “Dopamine RO % Caudate” value [13] was 78% and the “Dopamine RO % Putamen” value [13] was 69%. For the same compound, the “Dopamine RO % Temporal lobe” value [13] was 17%, the “Dopamine RO % Thalamus” value [13] was 40% and the “Dopamine RO % Caudate” value [14] was 75%. The “Dopamine RO % Putamen” value [14] was 66%, the “Dopamine RO % Temporal lobe” value [14] was 35% and the “Dopamine RO % Thalamus” value [14] was 30%. For the same compound, the “Dopamine RO % Caudate” value [15] was 74%, the “Dopamine RO % Putamen” value [15] was 66% and the “Dopamine RO % Temporal lobe” value [15] was 26%. The “Dopamine RO % Thalamus” value [15] was 37%, the “Dopamine RO % Caudate” value [16] was 76% and the “Dopamine RO % Putamen” value [16] was 70%. The “Dopamine RO % Temporal lobe” value [16] was 25%, the “Dopamine RO % Thalamus” value [16] was 43% and the “Dopamine RO % Caudate” value [17] was 73%. The “Dopamine RO % Putamen” value [17] was 63%, the “Dopamine RO % Temporal lobe” value [17] was 34% and the “Dopamine RO % Thalamus” value [17] was 56%. The “Dopamine RO % (Caudate + Putamen)” value (50 mg SS (once a day for 4 days), 3 h after Day 4 administration) was 69%, the “Dopamine RO % (Caudate + Putamen)” value (50 mg SS (once a day for 4 days), 24 h after Day 4 administration) was 68% and the “average dopamine (e.g., D2/D3) RO % in caudate, putamen, and thalamus” value (50 mg SS and 100 mg SS, at least from Day 4 since the treatment began) was “significantly stabilized”. The “Dopamine RO % (Caudate + Putamen)” value (75 mg QD, 0 h after LB-102 administration) was 0%, the “Dopamine RO % (Caudate + Putamen)” value (75 mg QD, 3 h after LB-102 administration) was 33% and the “Dopamine RO % (Caudate + Putamen)” value (75 mg QD, 24 h after LB-102 administration) was 55%. For the same compound, the “Dopamine RO % Caudate” value [18] was 27%, the “Dopamine RO % Putamen” value [18] was 20% and the “Dopamine RO % Temporal lobe” value [18] was 12%. The “Dopamine RO % Thalamus” value [18] was 31%, the “Dopamine RO % Caudate” value [19] was 70% and the “Dopamine RO % Putamen” value [19] was 52%. The “Dopamine RO % Temporal lobe” value [19] was 45%, the “Dopamine RO % Thalamus” value [19] was 64% and the “Dopamine RO % Caudate” value [20] was 53%. For the same compound, the “Dopamine RO % Putamen” value [20] was 38%, the “Dopamine RO % Temporal lobe” value [20] was 4% and the “Dopamine RO % Thalamus” value [20] was 16%. For the same compound, the “Dopamine RO % Caudate” value [21] was 53%, the “Dopamine RO % Putamen” value [21] was 48% and the “Dopamine RO % Temporal lobe” value [21] was 21%. The “Dopamine RO % Thalamus” value [21] was 44%, the “Dopamine RO % Caudate” value [22] was 58% and the “Dopamine RO % Putamen” value [22] was 53%. For the same compound, the “Dopamine RO % Temporal lobe” value [22] was 17%, the “Dopamine RO % Thalamus” value [22] was 37% and the “Dopamine RO % Caudate” value [23] was 45%. For the same compound, the “Dopamine RO % Putamen” value [23] was 39%, the “Dopamine RO % Temporal lobe” value [23] was 16% and the “Dopamine RO % Thalamus” value [23] was 25%. The “Dopamine RO % Caudate” value (75 mg QD, Subject 3, 3.5 h after LB-102 admin.) was 57%.
